Measurements: PubChem BioAssay AID588571 (Sanford-Burnham Center for Chemical Genomics, 2011)
Calls of active or inactive are those of the source.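 The calls were made as follows: active = mean IC50 at or below 20 µM; inactive = the rest.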

Test system: CHO-CHOP cells viability, ATPlite luminescence, 6 h
Experiment: CHO-CHOP cell viability loss after compound exposure – 6 h exposure, ATPlite luminescence, cytotoxicity control for UPR adaptive arm activator project, SAR follow-up (AID 588571)

| SMILES | IC50 |
| --- | --- |
| Cc1cc(Br)cc(NC(=O)c2cc(-c3ccncc3)nc3ccccc23)c1 | > 80 µM (inactive) |
| Cc1ccc(NC(=O)c2cc(-c3ccncc3)nc3ccccc23)cc1 | > 80 µM (inactive) |
| O=C(Nc1ccc(C(F)(F)F)cc1)c1cc(-c2ccncc2)nc2ccccc12 | 70.4 µM (inactive) |
| Cc1nc(Nc2nc(-c3ccccc3)cc(=O)[nH]2)nc2ccccc12 | 60.1 µM (inactive) |
| O=C(Nc1ccc(Cl)cc1)c1cc(-c2ccncc2)nc2ccccc12 | 75.4 µM (inactive) |
| O=C(Nc1ccc(Br)c(C(F)(F)F)c1)c1cc(-c2ccncc2)nc2ccccc12 | > 80 µM (inactive) |
| O=C(Nc1ccc(F)cc1)c1cc(-c2ccncc2)nc2ccccc12 | > 80 µM (inactive) |
